Test [1] deals with Delta-type opioid receptor (Rattus norvegicus) (UniProt P33533). The test can be described thus: Displacement of [3H]DADLE from delta opioid receptor in rat brain at 100 nM after 60 mins by liquid scintillation counting method relative to control. For orientation: Loss of bound radioactivity is the signal in a displacement assay; it reports binding, not function.
For test [2], the target named is T1, Kappa-type opioid receptor (Homo sapiens, UniProt P41145). As to the kind of experiment: Agonist activity at human kappa opioid receptor expressed in CHO cell membranes assessed as stimulation of [35S]GTPgammaS binding incubated for 1 hr by liquid scintillation counting method relative to U-69,593. In kind it is functional. Background: Binding of GTPγS marks nucleotide exchange on a G protein.

The target in test [3] is T2, Mu-type opioid receptor (Rattus norvegicus, UniProt P33535). The test can be described thus: Agonist activity at rat mu opioid receptor expressed in rat C6 cell membranes assessed as stimulation of [35S]GTPgammaS binding incubated for 1 hr by liquid scintillation counting method. In kind it is functional.
The species entered for test [4] is Rattus norvegicus. The test can be described thus: Selectivity ratio of EC50 for rat delta opioid receptor to EC50 for rat mu opioid receptor.
Test [5] deals with T1, Kappa-type opioid receptor. The test can be described thus: Antagonist activity at human kappa opioid receptor expressed in CHO cell membranes assessed as inhibition of U-69,593-induced [35S]GTPgammaS binding measured after 1 hr by liquid scintillation counting method. It counts as functional.
Test [6] deals with Kappa-type opioid receptor (Rattus norvegicus, UniProt P34975). As to the kind of experiment: Displacement of [3H]U-69,593 from kappa opioid receptor in rat brain after 60 mins by liquid scintillation counting method.
In test [7] the target is T3, Delta-type opioid receptor (Rattus norvegicus, UniProt P33533). As to the kind of experiment: Displacement of [3H]DADLE from delta opioid receptor in rat brain after 60 mins by liquid scintillation counting method.
The target in test [8] is Delta-type opioid receptor (Rattus norvegicus) (UniProt P33533). As to the kind of experiment: Agonist activity at rat delta opioid receptor expressed in rat C6 cell membranes assessed as stimulation of [35S]GTPgammaS binding incubated for 1 hr by liquid scintillation counting method relative to DPDPE. In kind it is functional.
The target of test [9] is Mu-type opioid receptor (Rattus norvegicus) (UniProt P33535). The test can be described thus: Agonist activity at rat mu opioid receptor expressed in rat C6 cell membranes assessed as stimulation of [35S]GTPgammaS binding incubated for 1 hr by liquid scintillation counting method relative to DAMGO. It counts as functional.
The target in test [10] is Kappa-type opioid receptor (Rattus norvegicus) (UniProt P34975). The test can be described thus: Displacement of [3H]U-69,593 from kappa opioid receptor in rat brain at 100 nM after 60 mins by liquid scintillation counting method relative to control.
Test [11] deals with Mu-type opioid receptor (Rattus norvegicus) (UniProt P33535). The note with it: at 100 nM.
Test [12] has as its target T3, Delta-type opioid receptor. As to the kind of experiment: Agonist activity at rat delta opioid receptor expressed in rat C6 cell membranes assessed as stimulation of [35S]GTPgammaS binding incubated for 1 hr by liquid scintillation counting method. In kind it is functional.
The target of test [13] is T2, Mu-type opioid receptor.
Test [14] concerns the target Mu-type opioid receptor (Rattus norvegicus) (UniProt P33535). As to the kind of experiment: Antagonist activity at rat mu opioid receptor expressed in rat C6 cell membranes assessed as inhibition of DAMGO-induced [35S]GTPgammaS binding measured after 1 hr by liquid scintillation counting method. It counts as functional.
Test [15] shares this target. The test can be described thus: Antagonist activity at rat brain mu opioid receptor expressed in rat C6 cell membranes assessed as inhibition of DAMGO-induced [35S]GTPgammaS binding at 1 uM after 1 hr by liquid scintillation counting method. It counts as functional.
Test [16] deals with T1, Kappa-type opioid receptor. As to the kind of experiment: Agonist activity at human kappa opioid receptor expressed in CHO cell membranes assessed as stimulation of [35S]GTPgammaS binding incubated for 1 hr by liquid scintillation counting method. In kind it is functional.
Test [17] in a line: Selectivity ratio of EC50 for human kappa opioid receptor expressed in CHO cell membranes to EC50 for rat mu opioid receptor expressed in rat C6 cell membranes. It counts as cell-based.

Calls of active or inactive are those of the source. The calls are words filed in the database; no cut-off is given here. Where only a bound is given, the exact number is not on record here.

T3 sequence (P33533 whole entry): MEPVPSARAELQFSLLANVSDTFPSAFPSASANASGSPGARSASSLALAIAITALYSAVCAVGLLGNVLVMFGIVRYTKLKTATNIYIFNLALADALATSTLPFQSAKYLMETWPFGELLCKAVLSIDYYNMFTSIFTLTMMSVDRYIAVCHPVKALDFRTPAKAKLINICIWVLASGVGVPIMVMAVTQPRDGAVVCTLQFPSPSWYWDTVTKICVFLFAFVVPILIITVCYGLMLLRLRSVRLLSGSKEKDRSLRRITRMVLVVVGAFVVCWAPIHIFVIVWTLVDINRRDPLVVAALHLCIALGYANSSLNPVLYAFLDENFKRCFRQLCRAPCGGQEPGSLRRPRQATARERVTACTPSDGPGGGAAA
Sequence of Delta-type opioid receptor (Rattus norvegicus) (P33533 whole entry): as above
Sequence of Kappa-type opioid receptor (Rattus norvegicus) (P34975 whole entry): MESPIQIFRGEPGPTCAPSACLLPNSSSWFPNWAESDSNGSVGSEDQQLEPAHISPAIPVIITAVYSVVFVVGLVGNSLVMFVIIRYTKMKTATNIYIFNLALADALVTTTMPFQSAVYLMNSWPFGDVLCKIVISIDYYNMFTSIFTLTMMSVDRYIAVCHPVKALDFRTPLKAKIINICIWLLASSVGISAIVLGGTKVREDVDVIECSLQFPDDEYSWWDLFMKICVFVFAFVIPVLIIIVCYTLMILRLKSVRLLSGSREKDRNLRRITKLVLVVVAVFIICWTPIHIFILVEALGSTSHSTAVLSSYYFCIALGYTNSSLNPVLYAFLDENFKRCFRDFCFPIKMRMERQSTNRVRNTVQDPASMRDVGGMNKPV
T2 sequence (P33535 whole entry): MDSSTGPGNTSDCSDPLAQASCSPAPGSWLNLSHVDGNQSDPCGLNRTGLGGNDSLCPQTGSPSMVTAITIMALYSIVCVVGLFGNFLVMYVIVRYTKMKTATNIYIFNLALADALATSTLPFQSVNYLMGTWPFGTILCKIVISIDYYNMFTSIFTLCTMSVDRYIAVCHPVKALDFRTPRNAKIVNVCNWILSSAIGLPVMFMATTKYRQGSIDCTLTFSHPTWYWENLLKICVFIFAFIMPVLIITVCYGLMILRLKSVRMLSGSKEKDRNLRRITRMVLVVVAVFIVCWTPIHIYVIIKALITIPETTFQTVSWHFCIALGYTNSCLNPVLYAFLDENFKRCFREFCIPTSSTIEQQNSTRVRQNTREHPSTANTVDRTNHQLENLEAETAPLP
Sequence of Mu-type opioid receptor (Rattus norvegicus) (P33535 whole entry): as above
T1 sequence (P41145 whole entry): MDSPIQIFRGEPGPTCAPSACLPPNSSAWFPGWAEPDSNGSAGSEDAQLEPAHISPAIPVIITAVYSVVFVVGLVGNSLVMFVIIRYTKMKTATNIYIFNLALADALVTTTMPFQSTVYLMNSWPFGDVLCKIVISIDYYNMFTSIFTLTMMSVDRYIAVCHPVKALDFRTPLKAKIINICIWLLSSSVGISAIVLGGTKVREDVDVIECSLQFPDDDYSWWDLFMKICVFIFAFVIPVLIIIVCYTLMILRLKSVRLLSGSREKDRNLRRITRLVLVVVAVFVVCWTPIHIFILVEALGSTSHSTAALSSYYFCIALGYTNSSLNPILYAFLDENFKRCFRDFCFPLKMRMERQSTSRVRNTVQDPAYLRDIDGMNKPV
Sequence of Kappa-type opioid receptor (Rattus norvegicus, UniProt P34975) (P34975 whole entry): as the sequence (P34975 whole entry) above

For the molecule `C=CCN1C[C@H](C)N([C@H](c2ccc(C(=O)N(CC)CC)cc2)c2cccc(OC)c2)C[C@H]1C`, the inhibition in test [1] is above 50%.
For the molecule `CC[C@]12CCN(CC3CC3)[C@H](C(=O)c3ccc(O)cc31)[C@H]2C`, the Activity in test [2] was 93%.
With `O=[N+]([O-])c1ccc(CCN2CC[C@@]3(c4cccc(O)c4)CCC[C@@H]2[C@H]3O)cc1`, the EC50 in test [3] turned out to be 0.74 nM; in [12] it was 630 nM. In test [4], the Ratio EC50 was found to be 850. Also, the inhibition entry in test [5] was “Active”. Also, the inhibition constant (Ki) was determined as 54.5 nM in [6], 9.81 nM in test [7] and 0.073 nM in [13]. The Activity in [8] and in test [9] was 104% each time. For the same molecule, the inhibition in [10], in [11] and in test [1] was above 50% throughout.
Turning to `Oc1cccc([C@]23CCC[C@H]([C@H]2O)N(CCc2ccccc2)CC3)c1`, the EC50 in test [3] was 22 nM; in test [12], 1080 nM. Moreover, the values for the inhibition constant Ki in test [7] and in test [13] were 19.2 nM and 0.265 nM, respectively. Besides, the results for the Activity in test [8] and in [9] were 100% and 120%, respectively. Further, the inhibition in test [11] and in test [1] was above 50% in each case.
`Oc1cccc(C23CCCC(C2O)N(C/C=C/c2ccccc2)CC3)c1` (single isomer, unassigned): the results for the EC50 in test [3] and in [12] were 1.9 nM and 253 nM, respectively. The Ratio EC50 in test [4] stood at 133. Also, the Ki in test [7] turned out to be 17.8 nM; in test [13] it was 0.741 nM. For the same molecule, the Activity worked out at 51% in [8] and 20% in test [9]. Further, the inhibition in test [10] is below 50%; in [11] it was above 50%; in test [1], above 50%.
For the molecule `Oc1cccc([C@]23CCC[C@H]([C@@H]2O)N(C[C@@H]2C[C@@H]2c2ccccc2)CC3)c1`, the EC50 in [3] came to 797 nM. Further, in [9], the Activity is 22%. In addition, the inhibition in [10] is below 50%; in test [11], above 50%; in test [1], below 50%. Also, in test [13], the Ki came out at 11.6 nM.
Regarding `C=CCN1CC[C@@]2(c3cccc(O)c3)CCC[C@@H]1[C@H]2O`, the EC50 in test [3] amounted to 2060 nM. In addition, in [9], the Activity came out at 67%. Also, the inhibition in [10] is below 50%; in [11], above 50%; in test [1], below 50%. Also, in test [13], the Ki came to 29.2 nM.
Take `Oc1cccc([C@]23CCC[C@H]([C@@H]2O)N(C[C@@H]2C[C@H]2c2ccccc2)CC3)c1`: in test [14], the inhibition result is “Active”. For the same molecule, the inhibition was below 50% in [10], above 50% in test [11] and below 50% in [1]. In test [13], this molecule had a Ki of 44.5 nM.
As to `Oc1cccc([C@]23CCC[C@H]([C@@H]2O)N(C[C@H]2C[C@H]2c2ccccc2)CC3)c1`, in test [14], the inhibition result is “Active”. For the same molecule, the inhibition is below 50% in test [10], above 50% in [11] and below 50% in test [1]. Moreover, the affinity in test [13] corresponds to a Ki of 51.8 nM.
Take `O=[N+]([O-])c1ccc(CCN2CC[C@]3(c4cccc(O)c4)CCC[C@H]2[C@@H]3O)cc1`: the Ke in test [15] was determined as 31.5 nM. Moreover, the inhibition result in test [14] is “Active”. Further, the inhibition in test [10] was below 50%; in test [11], above 50%; in test [1], below 50%. For the same molecule, in [13], the Ki is 26.5 nM.
Molecule `CN1CC[C@]23c4c5ccc(O)c4O[C@H]2[C@@H](O)C=C[C@H]3[C@H]1C5` had an inhibition in [11] above 50%.
Regarding `Oc1cccc([C@]23CCC[C@H]([C@H]2O)N(CCc2ccc(C(F)(F)F)cc2)CC3)c1`, the half-maximal effective concentration (EC50) in [16] came out at 761 nM; in test [3], 19 nM; in test [12], 901 nM. Besides, the Ratio EC50 in test [4] was 47; in [17], 40. The inhibition constant (Ki) came out at 29.9 nM in [6], 161 nM in test [7] and 1.99 nM in [13]. The values for the Activity in test [2], in [8] and in test [9] were 18%, 50% and 83%, respectively. Moreover, the inhibition in [10], in [11] and in test [1] was above 50% in each case.
Regarding `Oc1cccc([C@@]23CCC[C@@H]([C@@H]2O)N(CC/C=C/c2ccccc2)CC3)c1`, in test [14], the inhibition result was “Active”. Moreover, the inhibition was below 50% in [10], above 50% in [11] and below 50% in test [1]. Also, the inhibitory constant (Ki) in [13] is 25 nM.

Broadly, the inhibition is the drop in the measured response relative to a control, in per cent. One may read the EC50 as the concentration giving half of the maximal effect. The Ki is a dissociation constant, usually derived from enzyme kinetics or from competition with a known ligand. Read a low Ki as tighter binding.

The values above are taken from ChEMBL document CHEMBL4038276 (Bioorg Med Chem, 2017).
